Data as given in US8309608B2, “Use of eNOS transcription enhancers in the cell therapy of ischemic heart diseases” (Sanofi-Aventis Deutschland GmbH, priority 2003, dated 2012).
pEC50: −log10 of the molar value.

Assays:
[1] = tested on: eNOS promoter (eNOS transcription); assay: luciferase assay for activation of eNOS transcription; type: cell-based; conditions: human endothelial cell line with eNOS promoter-luciferase construct, 18 hours incubation; for TIR(max) value (maximum transcription induction ratio): ratio vs solvent alone; for pEC50: read-out: EC50 value of transcription induction ratio
Method: Activation of eNOS transcription was measured as described in detail in Li et al., Activation of protein kinase C alpha and/or epsilon enhances transcription of the human endothelial nitric oxide synthase gene, Mol. Pharmacol. 1998, 53:630-637. Briefly, a 3.5 kB long fragment 5′ of the starting codon of the eNOS gene was cloned, sequenced and cloned in firefly luciferase expression plasmids to monitor activation of the eNOS promoter by reporter gene activity. A human endothelial cell line stable transfected and expressing this promoter-reporter construct was used for compound testing. Cells were incubated for 18 hours with compounds. All compounds were dissolved before in sterile dimethylsulfoxide (DMSO). A final concentration of 0.5% DMSO in complete medium was allowed. Induction of reporter gene expression in these cells was measured using a standard luciferase assay system (Promega, Madison, Wis., USA; Cat. No E150) according to the manufacturer's instructions. Luciferase induction in cells incubated with compounds were compared to those incubated with solvent alone. The ratio of both activities (transcription induction ratio, TIR) was plotted as a function of compound concentration. Typically, TIR values started at low concentrations at a ratio of 1, indicating no compound effect, and extended up to a maximum TIR value TIR(max) which indicates the increase of the eNOS transcription. EC50 values of transcription induction ratios as a function of compound concentration were determined graphically.

[2] = tested on: bone marrow stem and progenitor cells; assay: migratory capacity of bone marrow stem and progenitor cells in response to SDF-1 (modified Boyden chamber); type: cell-based, human; conditions: 100 ng/ml SDF-1
Method: For incubation with the eNOS transcription enhancer 4-fluoro-N-(indan-2-yl)benzamide, 1 ml of a suspension of 1000000 stem and progenitor cells in 1 ml of X-Vivo 10 cell culture medium was mixed with 1 μl of a solution of 4-fluoro-N-(indan-2-yl)benzamide in dimethylsulfoxide (DMSO) which had been prepared by dissolution of 1.275 mg of 4-fluoro-N-(indan-2-yl)benzamide in 1 ml of DMSO. The concentration of 4-fluoro-N-(indan-2-yl)benzamide in the resulting mixture was 5 μM. For incubation with the eNOS transcription enhancer 4-fluoro-N-(indan-2-yl)benzamide and the eNOS inhibitor N^G-monomethyl-L-arginine (L-NMMA), in addition to 4-fluoro-N-(indan-2-yl)benzamide, L-NMMA (Sigma, St. Louis, Mo., USA) was added to the cell suspension to give a resulting mixture with a 4-fluoro-N-(indan-2-yl)benzamide concentration of 5 μM and an L-NMMA concentration of 1 mM. Incubation was carried for 18 hours at a temperature of 37° C. under an atmosphere of air containing 5% of carbon dioxide. The cells were isolated by centrifugation, washed two times with PBS and resuspended in X-Vivo 10.
For assessing the migratory capacity of bone marrow stem and progenitor cells, a total of 1×10^6 bone marrow stem and progenitor cells were resuspended in 250 μl of X-Vivo 10 and placed in the upper chamber of a modified Boyden chamber filled with matrigel (BioCoat invasion assay, 8 μm pore size, Becton Dickinson Labware, Two Oak Park, Bedford, Mass., USA). Then, the chamber was placed in a 24-well culture dish containing 500 μl endothelial basic medium (EBM) supplemented with either phosphate buffered saline (PBS), 50 ng/ml VEGF, or 100 ng/ml SDF-1. After 24 hours incubation at 37° C., transmigrated cells were counted.

[3] = tested on: athymic NMRI nude mice, hind limb ischemia; assay: in vivo hind limb ischemia model in mice (laser Doppler blood flow after injection of pretreated cells); conditions: 5×10^5 cells/mouse i.v., measured after two weeks
Method: For incubation with the eNOS transcription enhancer 4-fluoro-N-(indan-2-yl)benzamide, 1 ml of a suspension of 1000000 stem and progenitor cells in 1 ml of X-Vivo 10 cell culture medium was mixed with 1 μl of a solution of 4-fluoro-N-(indan-2-yl)benzamide in dimethylsulfoxide (DMSO) which had been prepared by dissolution of 1.275 mg of 4-fluoro-N-(indan-2-yl)benzamide in 1 ml of DMSO. The concentration of 4-fluoro-N-(indan-2-yl)benzamide in the resulting mixture was 5 μM. […]
The neovascularization capacity of bone marrow stem and progenitor cells was investigated in a murine model of hind limb ischemia by use of 8 to 10 week old athymic NMRI nude mice (The Jackson Laboratory, Bar Harbor, Me., USA) weighing 18 to 22 g. […] After two weeks the limb perfusion was determined. Specifically, the ischemic (right) limb/normal (left) limb blood flow ratio was measured using a laser Doppler blood flow meter (Laser Doppler Perfusion Imager System, MoorLDI-Mark 2, Moor Instruments, Wilmington, Del., USA). […] After twice recording laser Doppler color images, the average perfusions of the ischemic and non-ischemic limb were calculated on the basis of colored histogram pixels. To minimize variables including ambient light and temperature, calculated perfusion was expressed as the ratio of ischemic to non-ischemic hind limb perfusion. […]

Compound: O=C(NC1Cc2ccccc2C1)c1ccc2c(c1)OC(F)(F)O2 [2,2-difluorobenzo[1,3]dioxol-5-carboxylic acid indan-2-ylamide]
- TIR(max) value (maximum transcription induction ratio) [1]: 2.7
- pEC50 [1]: 6.85
- melting point: 147.5 °C

Compound: O=C(NC1Cc2ccccc2C1)c1ccc(F)cc1 [4-fluoro-N-(indan-2-yl)benzamide]
- migratory response to SDF-1 ([2]; cells from the healthy controls, 18 hours of treatment with 5 μM compound): 111.2±38.5 ×1000 migrated cells
- migratory response to SDF-1 ([2]; cells from the healthy controls, 18 hours of treatment with 5 μM compound, listed as 4-fluoro-(N-indan-2-yl)benzamide): 74.3±21.5 ×1000 migrated cells
- migratory response to SDF-1 ([2]; cells from the patients, 18 hours of treatment with 5 μM compound and 1 mM L-NMMA): 23.9±7.4 ×1000 migrated cells
- migratory response to SDF-1 ([2]; cells from the patients, 18 hours of treatment with 5 μM compound): 74.0±20.7 ×1000 migrated cells
- TIR(max) value (maximum transcription induction ratio) [1]: 4.10
- pEC50 [1]: 6.10
- melting point: 167 °C
- laser Doppler-derived relative blood flow (ratio ischemic limb/normal limb) ([3]; cells from the patients treated for 18 hours with 5 μM compound and 1 mM L-NMMA): 39.7 ± 10.3%
- laser Doppler-derived relative blood flow (ratio ischemic limb/normal limb) ([3]; cells from the patients treated for 18 hours with 5 μM compound): 59.1 ± 11.6%
